Measured values published in US20050101575A1, “Vitamin d3 derivatives and remedies using the same” (priority 2003, published 2005).

These compounds were tested on HL-60 cell (assay: Vitamin D3 antagonist effect: suppression of HL-60 cell differentiation induced by 1α,25-dihydroxyvitamin D3 (NBT reduction activity)). Conditions: Homo sapiens, HL-60, 96 h, simultaneous treatment with 1α,25-dihydroxyvitamin D3 (1×10^−8 M); compound 1×10^−9 to 1×10^−6 M; 4 days at 37° C.; read-out: IC50 (nM), suppression of NBT reduction activity induction in HL-60 cell.
Type: cell-based
Text: (1) HL-60 cell line which had been purchased from a cell bank (Japanese Cancer Research Resource Bank, Cell No: JCRB0085) was used. The cell line was stored as a frozen storage stock to prevent the change of cell characteristics attributable to successive cultivations. Prior to the initiation of experiments, the cells were defrosted and successive culturing was stared. For the experiments, cells whose successive culturing was from one month to about a half year were used. The successive culturing was carried out by centrifugally collecting cells which were in the state of suspension culture, and diluting the collected cell concentrate with a fresh culture medium at a ratio of about 1/100 (1-2×10^4 cells/ml). As the culture medium, an RPMI-1640 medium containing 10% fetal bovine serum was used.
The cells which were under successive culturing in the above process (1) were centrifugally collected, and they were dispersed in a culture medium at the cell concentration of 2×10^4 cells/ml. The dispersion was seeded into a 24-well culture schale at 1 ml/well. […] As the control, ethanol was added at 1 μl/well. After culturing at 37° C. for 4 days in the presence of 5% CO2, the cells were centrifugally collected.
(3) As the parameter of differentiation inducing effect on HL-60 cells, the induction of nitroblue tetrazonium (henceforth, NBT) reduction activity was used. The NBT reduction activity was determined according to the following procedure. That is, centrifugally collected cells were suspended in a fresh culture medium, and subsequently NBT and 12-O-tetradecanoylphorbol-13-acetate were added in such a manner that their concentrations became 0.1% and 100 ng/ml, respectively. After the mixed suspension was incubated at 37° C. for 25 min, a cytospin specimen was prepared. After air drying, it was stained with Kernechtrot, and the ratio of the positive cells of NBT reduction activity was determined under an optical microscope. Percentage ratios of the positive cell ratio in a simultaneous treatment with 1 α,25-dihydroxyvitamin D3 (1×10^−8 M) and a compound of the present invention at various treating concentrations (1×10^−9 to 1×10^−6 M) to that in a single treatment with 1 α,25-dihydroxyvitamin D3 (1×10^−8 M) were plotted against treating concentrations of the compound of the present invention, and the treating concentration of the compound of the present invention at which the percentage ratio became 50% was determined as IC50 value (nM).

C=C1C[C@H](C[C@@H](C)[C@H]2CC[C@H]3/C(=C/C=C4/C[C@@H](O)[C@H](C)[C@H](O)C4=C)CCC[C@]23C)OC1=O [Compound No. 22d, 2(S)-methyl-20(R)-(tetrahydro-3-vinylidene-2-furanon-5-(S)-yl)methyl-9,10-s ecopregna-5(Z),7(E),10(19)-triene-1(S),3(R)-diol] and C=C1C[C@H](C[C@@H](C)[C@H]2CC[C@H]3/C(=C/C=C4/C[C@H](O)[C@H](C)[C@H](O)C4=C)CCC[C@]23C)OC1=O [Compound No. 22b, 2(S)-methyl-20(R)-(tetrahydro-3-vinylidene-2-furanon-5-(S)-yl)methyl-9,10-s ecopregna-5(Z),7(E), 10(19)-triene-1(S),3(S)-diol] cannot be ordered by IC50: under 50 nM for the first, under 50 nM for the second.

C=C1CC(/C=C/[C@@H](C)[C@H]2CC[C@H]3/C(=C/C=C4/C[C@@H](O)C[C@H](O)C4=C)CCC[C@]23C)OC1=O (some centres unmarked) [Compound No. 31b] and C=C1CC(/C=C/[C@@H](C)[C@H]2CC[C@H]3/C(=C/C=C4/C[C@@H](O)[C@H](C)[C@H](O)C4=C)CCC[C@]23C)OC1=O (stereo partly drawn) [Compound No. 32a, 2(S)-methyl-20(R)-(2-(tetrahydro-3-vinylidene-2-furanon-5-yl)-1(E)-ethenyl)-9,10-secopregna-5(Z), 7(E), 10(19)-triene-1(S), 3(R)-diol] cannot be ordered by IC50: under 50 nM for the first, under 50 nM for the second.

C=C1CC([C@@H](C)[C@H]2CC[C@H]3/C(=C/C=C4/C[C@@H](O)C[C@H](O)C4=C)CCC[C@]23C)OC1=O (stereo partly drawn) [Compound No. 11a, 20(R)-(tetrahydro-3-vinylidene-2-furanon-5-yl)-9,10-secopregna-5(Z), 7(E), 10(19)-triene-1(S),3(R)-diol] showed an IC50 of 50 to 150 nM.
